Consider 18 compounds from ChEMBL document CHEMBL4402542, “Heat Shock Protein 90 Inhibitors: An Update on Achievements, Challenges, and Future Directions” (J Med Chem, 2020).

The term IC50 denotes the midpoint of a concentration-inhibition curve. A high value points to a need for much substance. What is called Kd is the equilibrium constant for the complex coming apart. As a reminder, the Ki is the dissociation constant of the complex between target and ligand, obtained from inhibition or displacement.

In assay [1] the target is T1, Heat shock protein HSP 90-alpha (Homo sapiens, UniProt P07900). In words: Inhibition of His6-tagged N-terminal human HSP90alpha expressed in Escherichia coli BL21 Lys cells preincubated for 10 mins followed by SA-APC and biotin-GM addition and measured after 6 hrs by TR-FRET assay.
The nature of assay [2]: Binding affinity to His6-tagged TPR2A (unknown origin) assessed as reduction in fluorescein-labeled C-terminal Hsp90/TRP2A protein-protein interaction incubated for 2 hrs by fluorescence polarization assay. Set-up: species or system Homo sapiens. A general note: Polarisation of emitted light reports the rotation of a fluorescent probe.
Assay [3] has as its system MDA-MB-231. Put plainly: Antiproliferative activity against human MDA-MB-231 cells. In kind it is functional, cell-based.
The subject of assay [4] is MV4-11. Put plainly: Antiproliferative activity against human MV4-11 cells after 120 hrs by TopCount scintillation analysis. To be noted: MV4-11, 120 h. In kind it is functional, cell-based.
Assay [5] concerns MCF7. Put plainly: Antiproliferative activity against human MCF7 cells. The assay is classed as functional, cell-based.
For assay [6], the system named is PANC-1. In words: Antiproliferative activity against human PANC1 cells after 48 hrs by MTS assay. In kind it is functional, cell-based. To be noted: PANC-1, 48 h. A general note: Tetrazolium assays rely on reduction of a dye to a coloured formazan, in cell work by metabolically active cells.
The subject of assay [7] is BXPC-3. Put plainly: Antiproliferative activity against human BxPC3 cells after 48 hrs by MTS assay. In kind it is functional, cell-based. The settings on record: BXPC-3, 48 h.
In assay [8] the test system is MIA PaCa-2. In words: Antiproliferative activity against human MIAPaCa2 cells after 48 hrs by MTS assay. The assay is classed as functional, cell-based. The settings on record: MIA PaCa-2, 48 h.
The target of assay [9] is T1, Heat shock protein HSP 90-alpha. In words: Inhibition of FITC-geldanamycin binding to recombinant human HSP90alpha expressed in Escherichia coli preincubated for 2 hrs followed by Geldanamycin-FITC addition and measured after 5 hrs by fluorescence polarization competitive binding assay.
Assay [10] concerns the target Heat shock protein HSP 90-beta (Homo sapiens, UniProt P08238). In words: Inhibition of FITC-geldanamycin binding to recombinant human HSP90beta expressed in Escherichia coli preincubated for 2 hrs followed by Geldanamycin-FITC addition and measured after 5 hrs by fluorescence polarization competitive binding assay.
For assay [11], the target named is T2, Endoplasmin (Homo sapiens, UniProt P14625). Put plainly: Inhibition of FITC-geldanamycin binding to N-terminal His-tagged recombinant human GRP94 expressed in Escherichia coli preincubated for 2 hrs followed by Geldanamycin-FITC addition and measured after 5 hrs by fluorescence polarization competitive binding assay.
Assay [12] addresses T3, Heat shock protein 75 kDa, mitochondrial (Homo sapiens, UniProt Q12931).
T3 sequence (Q12931 whole entry): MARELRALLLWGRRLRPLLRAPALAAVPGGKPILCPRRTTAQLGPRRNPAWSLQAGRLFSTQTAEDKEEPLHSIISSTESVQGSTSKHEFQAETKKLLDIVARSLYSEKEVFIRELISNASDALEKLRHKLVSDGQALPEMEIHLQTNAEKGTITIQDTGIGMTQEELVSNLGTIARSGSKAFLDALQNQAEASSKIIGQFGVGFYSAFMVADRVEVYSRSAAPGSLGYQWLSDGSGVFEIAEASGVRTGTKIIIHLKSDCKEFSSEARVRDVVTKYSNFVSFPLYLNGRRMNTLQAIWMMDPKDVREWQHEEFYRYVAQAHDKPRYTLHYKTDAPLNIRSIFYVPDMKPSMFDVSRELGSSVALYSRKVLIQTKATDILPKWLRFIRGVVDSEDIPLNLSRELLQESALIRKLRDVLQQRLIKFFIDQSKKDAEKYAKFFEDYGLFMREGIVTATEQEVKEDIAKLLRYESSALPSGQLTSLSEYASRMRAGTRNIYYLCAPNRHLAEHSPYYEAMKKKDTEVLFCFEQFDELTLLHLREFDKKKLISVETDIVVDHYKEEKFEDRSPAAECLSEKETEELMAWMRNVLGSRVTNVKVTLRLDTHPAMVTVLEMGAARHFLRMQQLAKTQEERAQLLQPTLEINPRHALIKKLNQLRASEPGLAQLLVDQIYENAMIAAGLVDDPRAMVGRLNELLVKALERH
In words: Inhibition of FITC-geldanamycin binding to N-terminal His-tagged recombinant human TRAP1 (60 to 704 residues) expressed in Escherichia coli preincubated for 2 hrs followed by Geldanamycin-FITC addition and measured after 5 hrs by fluorescence polarization competitive binding assay.

A short description of assay [13]: Binding affinity to His6-tagged TPR2A (unknown origin) by isothermal titration calorimetry. On the set-up: species or system Homo sapiens. A general note: Isothermal titration calorimetry measures the heat released or taken up as one component is titrated into another.
In assay [14] the test system is NCI-H1299. Put plainly: Antiproliferative activity against human NCI-H1299 cells incubated for 2 days followed by medium replacement by MTT assay. In kind it is functional, cell-based. To be noted: NCI-H1299, 48 h.
The subject of assay [15] is PANC-1. Put plainly: Antiproliferative activity against human PANC1 cells after 24 hrs by MTS assay. To be noted: PANC-1, 24 h. In kind it is functional, cell-based.
Assay [16] relates to PANC-1. In words: Antitumor activity against human PANC1 cells xenografted in athymic mouse at 3 mg/kg, ip administered for 2 continuous days followed by 1 injection per 3 days and measured twice per week relative to control. To be noted: PANC-1, ip, 72 h, read-out: GI. In kind it is functional.
Assay [17] can be described thus: Antiproliferative activity against rat KNRK5.2 cells. The assay is classed as functional, cell-based.
Assay [18] has as its system MCF7. In words: Antiproliferative activity against human MCF7 cells after 72 hrs by MTS/PMS assay. In kind it is functional, cell-based. To be noted: MCF7, 72 h.
The target in assay [19] is T2, Endoplasmin. In words: Displacement of FITC-geldanamycin from GRP94 (unknown origin) after 24 hrs by fluorescence polarization assay.

SMILES strings stand for the structures.

T2 sequence (P14625 whole entry): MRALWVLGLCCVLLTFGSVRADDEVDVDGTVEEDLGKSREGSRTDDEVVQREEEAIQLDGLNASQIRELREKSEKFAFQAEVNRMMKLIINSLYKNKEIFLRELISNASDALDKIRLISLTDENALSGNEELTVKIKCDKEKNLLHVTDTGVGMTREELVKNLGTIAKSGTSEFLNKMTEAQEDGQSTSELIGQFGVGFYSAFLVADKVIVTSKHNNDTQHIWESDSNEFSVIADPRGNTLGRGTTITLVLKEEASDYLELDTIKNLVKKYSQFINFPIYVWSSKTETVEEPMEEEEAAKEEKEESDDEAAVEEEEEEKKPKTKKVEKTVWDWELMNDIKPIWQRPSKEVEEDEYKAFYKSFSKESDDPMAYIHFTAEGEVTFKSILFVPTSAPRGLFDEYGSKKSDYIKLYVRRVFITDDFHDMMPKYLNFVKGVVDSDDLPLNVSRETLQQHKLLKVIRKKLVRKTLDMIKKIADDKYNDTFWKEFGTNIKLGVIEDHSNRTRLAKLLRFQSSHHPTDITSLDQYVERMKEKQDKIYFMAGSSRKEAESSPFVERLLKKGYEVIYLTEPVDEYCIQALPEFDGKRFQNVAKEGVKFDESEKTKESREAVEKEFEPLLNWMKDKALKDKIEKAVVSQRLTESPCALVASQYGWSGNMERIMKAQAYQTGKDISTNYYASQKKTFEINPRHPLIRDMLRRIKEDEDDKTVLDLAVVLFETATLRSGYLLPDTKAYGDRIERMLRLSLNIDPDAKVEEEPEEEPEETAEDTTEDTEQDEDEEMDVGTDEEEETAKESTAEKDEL
Heat shock protein HSP 90-beta, sequence (P08238 whole entry): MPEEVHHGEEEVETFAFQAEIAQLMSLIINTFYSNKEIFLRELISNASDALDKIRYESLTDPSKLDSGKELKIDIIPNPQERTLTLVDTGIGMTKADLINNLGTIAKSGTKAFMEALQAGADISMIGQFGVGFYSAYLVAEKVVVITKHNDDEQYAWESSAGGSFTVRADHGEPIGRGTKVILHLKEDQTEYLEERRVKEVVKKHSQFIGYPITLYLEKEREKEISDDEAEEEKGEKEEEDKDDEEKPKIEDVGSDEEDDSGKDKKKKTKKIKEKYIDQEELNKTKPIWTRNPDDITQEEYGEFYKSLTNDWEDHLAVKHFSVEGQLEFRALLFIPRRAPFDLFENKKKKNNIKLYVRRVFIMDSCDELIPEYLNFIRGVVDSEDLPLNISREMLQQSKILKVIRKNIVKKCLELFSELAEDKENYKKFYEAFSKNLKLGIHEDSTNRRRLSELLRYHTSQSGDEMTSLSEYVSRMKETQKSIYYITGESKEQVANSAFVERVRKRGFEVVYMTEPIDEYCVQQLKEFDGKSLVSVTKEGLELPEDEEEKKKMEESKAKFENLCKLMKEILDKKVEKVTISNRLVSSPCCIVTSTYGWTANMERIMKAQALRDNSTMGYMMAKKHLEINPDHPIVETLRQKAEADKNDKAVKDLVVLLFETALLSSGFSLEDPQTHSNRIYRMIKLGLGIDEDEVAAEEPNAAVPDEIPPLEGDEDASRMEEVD

`COc1cccc(C(=O)NC2CC3CCC(C2)N3c2ccc(C(N)=O)cn2)c1C` (stereo unspecified) came in with an IC50 in [1] of 0.641 µM.

For the compound `CCCc1nc2c(=O)n(C)c(=O)nc-2n(C)n1`, in assay [2], the equilibrium dissociation constant (Kd) came to 0.202 µM. For the same compound, in [3], the IC50 was found to be 1.75 µM.

In [4], `CN(C)c1cc2c(cc1Sc1nc3c(N)nccc3n1CCNCC(C)(C)C)OCO2` [CUDC-305] had an IC50 of 0.1 µM. This counts as sub-micromolar.

`CCn1nc(-c2ccccc2)nc2c(=O)n(C)c(=O)nc1-2`: the Kd in [2] turned out to be 0.928 µM.

In the case of `CCn1nc(-c2cccs2)nc2c(=O)n(C)c(=O)nc1-2`, the Kd in assay [2] turned out to be 0.308 µM.

Turning to `Cn1nc(Cc2ccccc2)nc2c(=O)n(C)c(=O)nc1-2`, the Kd in assay [2] was 0.566 µM.

Regarding `CO[C@@H]1[C@@H](OC(N)=O)[C@@H](O)[C@H](Oc2ccc3c(O)c(NC(=O)c4ccc(O)c(CC=C(C)C)c4)c(=O)oc3c2C)OC1(C)C` [NOVOBIOCIN], the IC50 in [5] was determined as 256 µM.

As for `CC1=C(CO)C(=O)O[C@@H]([C@@H](C)[C@H]2CC[C@H]3[C@@H]4C[C@H]5O[C@]56[C@@H](O)C=CC(=O)[C@]6(C)[C@H]4CC[C@]23C)C1` [WITHAFERIN A], the IC50 in [6] came to 1.24 µM; in assay [7], 2.78 µM; in assay [8] it was 2.93 µM.

As to `CCc1cc(C(N)=O)ccc1-n1nc(C(C)C)c2c(-n3cnc(-c4cnn(C)c4)c3)ccnc21` [TAS-116], the Ki is 0.0347 µM in assay [9], 0.0213 µM in [10], > 50 µM in assay [11] and > 50 µM in assay [12].

As to `Cc1nc2c(=O)n(C)c(=O)nc-2n(C)n1`, the figures for the Kd in [2] and in assay [13] were 0.365 µM and 16 µM, respectively.

As for `COc1ccc(CC(=O)c2ccc3c(c2OC)C=CC(C)(C)O3)cc1OC`, the IC50 in assay [14] was found to be 0.14 µM.

Regarding `CC1=C(O)C(=O)C=C2C1=CC=C1[C@@]2(C)CC[C@@]2(C)[C@@H]3C[C@](C)(C(=O)O)CC[C@]3(C)CC[C@]12C` [CELASTROL], in assay [15], the IC50 was 3 µM. The inhibition in vivo at 3 mg/kg in assay [16] is 80%.

In the case of `Cn1nc(-c2ccccc2)nc2c(=O)n(C)c(=O)nc1-2`, the Kd in assay [2] was 1.04 µM.

As to `COc1c(C)cnc(Cn2cnc3c(Cl)nc(N)nc32)c1C` [BIIB021], the concentration for half-maximal inhibition (IC50) in [5] was determined as 0.31 µM.

`C[C@@H]1C[C@H]2O[C@@H]2\C=C/C=C/C(=N\O)Cc2c(Cl)c(O)cc(O)c2C(=O)O1` displayed an IC50 in [17] of 0.039 µM. This lies in the double-digit nanomolar range.

In assay [5], `CC(C)NCCCn1c(Sc2cc3c(cc2I)OCO3)nc2c(N)ncnc21` [PU-H71] came in with an IC50 of 0.09 µM. This lies in the double-digit nanomolar range.

`CC(C)=CCc1c(O)cc2occ(-c3ccc(Cl)c(Cl)c3)c(=O)c2c1O` displayed an IC50 in assay [18] of 7.3 µM. That is a single-digit micromolar value.

As to `CC(C)c1cc(C(=O)N2Cc3ccccc3C2)c(O)c2cnoc12`, the Kd in assay [19] amounted to 8.48 µM.
